Patent publication US12213483B1, “Herbicidal compositions comprising trifludimoxazin” (BASF SE, priority 2024, dated 2025)
Several values for one entry are separate records, joined by “and”; a condition that tells them apart may be missing. Identical values can stand only once.

Experiments:
Assay type in all cases: in vivo
Setaria viridis (SETVI) = test: Post-emergence application in greenhouse trials, SETVI
Description: (§1) In the examples below, using the method of S. R. Colby (1967) “Calculating synergistic and antagonistic responses of herbicide combinations”, Weeds 15, p. 22ff., the value E, which is expected if the activity of the individual active compounds is only additive, was calculated: E=X+Y−(X·Y/100) • where • X=percent activity using active herbicide A at an application rate a; • Y=percent activity using active trifludimoxazin at an application rate b; • E=expected activity (in %) by A+B at application rates a+b.
(§2) If the value found experimentally is higher than the value E calculated according to Colby, a synergistic effect is present.
(§3) The culture containers used were plastic pots containing loamy sand with approximately 3.0% of humus as substrate. The seeds of the test plants were sown separately for each species.
(§4) For the post-emergence treatment, the test plants were grown to a plant height of from 3 to 15 cm, depending on the plant habit, and only then treated with the active compounds which had been suspended or emulsified in water. To this end, the test plants were either sown directly, and grown in the same containers, or they were first grown separately as seedlings and transplanted into the test containers a few days prior to treatment.
(§5) Depending on the species, the plants were kept at 10-25° C. and 20-35° C., respectively.
(§6) The test period extended over 2 to 4 weeks. During this time, the plants were tended and their response to the individual treatments was evaluated.
(§7) Evaluation was carried out using a scale from 0 to 100. 100 means no emergence of the plants, or complete destruction of at least the above-ground parts, and 0 means no damage or normal course of growth. A good herbicidal activity is given at values of at least 70, and very good herbicidal activity is given at values of at least 85.
(§8) In the greenhouse trials, unless indicated otherwise, herbicide A, trifludimoxazin and saflufenacil were formulated (50 g/I) and applied with addition of 1% MSO (methylated seed oil) as adjuvant. The solvent used was water (200 I/ha).

Kochia scoparia (KCHSC) = test: Post-emergence application in greenhouse trials, KCHSC
Description: as §1, §2, §3, §4, §5, §6, §7, §8

[1] = test system: Abutilon theophrasti (ABUTH); test: Post-emergence application in greenhouse trials, ABUTH
Description: as §1, §2, §3, §4, §5, §6, §7, §8

[2] = test system: Sorghum halapense (SORHA); test: Post-emergence application in greenhouse trials, SORHA; details: 20 DAT; growth stage 14; 0.9 g ai/ha
Description: as §1, §2, §3, §4, §5, §6, §7, §8

Hordeum vulgare (HORVS) = test: Post-emergence application in field trials, HORVS; details: 29 DAT; water volume 100 l/ha; pre plant burndown; growth stage 15-24; height 25-45 cm; 18 g ai/ha
Description: as §1, §2
(§9) On field test sites, natural weed infestation or seeded weeds were treated post-emergence of the weeds.
(§10) In the field trials, the weedy plants were treated as indicated below.
(§11) Herbicide A-1 (342 g/I), trifludimoxazin (500 g/I) and saflufenacil (342 g/I) were, together with addition of 1% MSO (methylated seed oil) as adjuvant (unless indicated otherwise), formulated in water as distribution medium as indicated and sprayed with commercial flat fan nozzles.
(§12) In the following experiments, the herbicidal activity for the individual herbicidal compositions (solo and mixture applications) was assessed at the indicated days after treatment (DAT). The assessments for the damage on undesired weeds caused by the composition was carried out using a scale from 0 to 100%, compared to the untreated control plants. Here, 0 means no damage and 100 means complete destruction of the plants.
(§13) Herbicide A-1 (100 g/l) and trifludimoxazin (500 g/l) were, together with addition of 1% MSO (methylated seed oil) as adjuvant (unless indicated otherwise), formulated in water as distribution medium as indicated and sprayed with commercial flat fan nozzles.

[3] = test system: Lolium multiflorum (LOLMU); test: Post-emergence application in greenhouse trials, LOLMU; details: 20 DAT; growth stage 13; 0.3 g ai/ha
Description: as §1, §2, §3, §4, §5, §6, §7, §8

Avena fatua (AVEFA) [4] = test: Post-emergence application in greenhouse trials, AVEFA; details: 20 DAT; growth stage 13; 0.3 g ai/ha
Description: as §1, §2, §3, §4, §5, §6, §7, §8

Avena fatua (AVEFA) [5] = test: Post-emergence application in field trials, AVEFA; details: 29 DAT; water volume 100 l/ha; pre plant burndown; growth stage 14-23; height 24-40 cm; 18 g ai/ha
Description: as §1, §2, §9, §10, §11, §12, §13

[6] = test system: Commelina benghalensis (COMBE); test: Post-emergence application in greenhouse trials, COMBE; details: 20 DAT; growth stage 21; 0.9 g ai/ha
Description: as §1, §2, §3, §4, §5, §6, §7, §8

[7] = test system: Digitaria sanguinales (DIGSA); test: Post-emergence application in greenhouse trials, DIGSA; details: 7 DAT; GS 12; C-1 0.3 g ai/ha
Description: as §1, §2, §3, §4, §5, §6, §7, §8

## CC(C)N(C)S(=O)(=O)NC(=O)c1cc(-n2c(=O)cc(C(F)(F)F)n(C)c2=O)c(F)cc1Cl [C-1, saflufenacil]
Setaria viridis (SETVI); 7 DAT, GS 14, C-1 0.9 g ai/ha
  % Herbicidal activity: 35%
Setaria viridis (SETVI); 20 DAT, growth stage 14, 0.9 g ai/ha
  % Herbicidal activity: 35%
Kochia scoparia (KCHSC); 6 DAT, GS 33, C-1 0.5 g ai/ha
  % Herbicidal activity: 60%
Kochia scoparia (KCHSC); 20 DAT, growth stage 33, 0.5 g ai/ha
  % Herbicidal activity: 40%
Kochia scoparia (KCHSC); 20 DAT, growth stage 33, 0.9 g ai/ha
  % Herbicidal activity: 60%
[1]; 6 DAT, GS 33, C-1 1.1 g ai/ha
  % Herbicidal activity: 45%
[1]; 20 DAT, growth stage 33, 1.1 g ai/ha
  % Herbicidal activity: 0%
[2]
  % Herbicidal activity: 0%
Hordeum vulgare (HORVS)
  % Herbicidal activity: 0%
[3]
  % Herbicidal activity: 0%
Avena fatua (AVEFA) [4]
  % Herbicidal activity: 0%
Avena fatua (AVEFA) [5]
  % Herbicidal activity: 0%
[6]
  % Herbicidal activity: 80%
[7]
  % Herbicidal activity: 10% and 15%
